Reference: ChEMBL document CHEMBL5463729, “Data for DCP probe BAY 1753011” (2023)

How the values were obtained:
Settings in all cases: Compound concentration 10.0 uM
[1] = target: Wee1-like protein kinase 2 (Homo sapiens) (UniProt P0C1S8); assay: Inhibition of Wee1B(h) at 10.0 µM in the Eurofins Kinase panel
[2] = target: Casein kinase II subunit alpha' (Homo sapiens) (UniProt P19784); assay: Inhibition of CK2alpha2(h) at 10.0 µM in the Eurofins Kinase panel
[3] = target: Homeodomain-interacting protein kinase 3 (Homo sapiens) (UniProt Q9H422); assay: Inhibition of HIPK3(h) at 10.0 µM in the Eurofins Kinase panel
[4] = target: Rho-associated protein kinase 1 (Homo sapiens) (UniProt Q13464); assay: Inhibition of ROCK-I(h) at 10.0 µM in the Eurofins Kinase panel
Rho-associated protein kinase 1 (Homo sapiens), sequence (Q13464 2-1354 limits assumed): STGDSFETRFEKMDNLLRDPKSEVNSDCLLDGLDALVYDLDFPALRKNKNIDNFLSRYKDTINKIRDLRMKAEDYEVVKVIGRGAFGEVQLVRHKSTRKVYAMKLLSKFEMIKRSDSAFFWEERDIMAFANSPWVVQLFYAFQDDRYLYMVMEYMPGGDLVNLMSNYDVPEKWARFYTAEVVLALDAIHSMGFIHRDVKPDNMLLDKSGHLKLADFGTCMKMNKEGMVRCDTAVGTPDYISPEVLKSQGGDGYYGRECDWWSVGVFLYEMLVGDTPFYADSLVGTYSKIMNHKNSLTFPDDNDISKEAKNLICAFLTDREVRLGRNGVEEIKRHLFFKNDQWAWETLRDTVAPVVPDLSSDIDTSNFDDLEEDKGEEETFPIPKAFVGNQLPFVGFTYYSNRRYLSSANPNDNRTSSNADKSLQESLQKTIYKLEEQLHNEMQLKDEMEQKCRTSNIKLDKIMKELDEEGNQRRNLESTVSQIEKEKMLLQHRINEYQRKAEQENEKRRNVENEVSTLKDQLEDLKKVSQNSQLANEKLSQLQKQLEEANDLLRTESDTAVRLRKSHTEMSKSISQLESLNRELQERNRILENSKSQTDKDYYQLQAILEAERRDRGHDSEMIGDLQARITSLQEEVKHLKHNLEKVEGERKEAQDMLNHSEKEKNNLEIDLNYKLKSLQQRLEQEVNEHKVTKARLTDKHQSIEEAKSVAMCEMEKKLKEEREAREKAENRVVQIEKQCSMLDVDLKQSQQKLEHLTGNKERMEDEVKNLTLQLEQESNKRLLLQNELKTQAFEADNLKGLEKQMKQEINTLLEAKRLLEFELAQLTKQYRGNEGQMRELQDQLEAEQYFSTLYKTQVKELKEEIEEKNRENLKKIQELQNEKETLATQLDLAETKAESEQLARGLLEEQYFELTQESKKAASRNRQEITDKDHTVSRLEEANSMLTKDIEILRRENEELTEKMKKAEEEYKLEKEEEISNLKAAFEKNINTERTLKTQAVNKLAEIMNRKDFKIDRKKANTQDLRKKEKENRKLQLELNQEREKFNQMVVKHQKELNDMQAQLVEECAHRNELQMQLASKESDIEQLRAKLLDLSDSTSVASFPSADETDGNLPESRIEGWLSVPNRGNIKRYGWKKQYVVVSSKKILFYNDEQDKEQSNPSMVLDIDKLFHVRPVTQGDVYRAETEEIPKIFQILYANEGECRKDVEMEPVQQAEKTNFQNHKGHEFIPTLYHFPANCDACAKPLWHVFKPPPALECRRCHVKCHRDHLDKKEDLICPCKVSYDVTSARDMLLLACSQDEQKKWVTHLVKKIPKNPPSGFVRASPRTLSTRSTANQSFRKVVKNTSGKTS

[5] = target: ALK tyrosine kinase receptor (Homo sapiens) (UniProt Q9UM73); assay: Inhibition of ALK(h) at 10.0 µM in the Eurofins Kinase panel
[6] = target: Rhodopsin kinase GRK7 (Homo sapiens) (UniProt Q8WTQ7); assay: Inhibition of GRK7(h) at 10.0 µM in the Eurofins Kinase panel
[7] = target: Serine/threonine-protein kinase MARK2 (Homo sapiens) (UniProt Q7KZI7); assay: Inhibition of PAR-1Balpha(h) at 10.0 µM in the Eurofins Kinase panel
[8] = target: Serine/threonine-protein kinase Nek2 (Homo sapiens) (UniProt P51955); assay: Inhibition of NEK2(h) at 10.0 µM in the Eurofins Kinase panel
Serine/threonine-protein kinase Nek2 (Homo sapiens), sequence (P51955 whole entry): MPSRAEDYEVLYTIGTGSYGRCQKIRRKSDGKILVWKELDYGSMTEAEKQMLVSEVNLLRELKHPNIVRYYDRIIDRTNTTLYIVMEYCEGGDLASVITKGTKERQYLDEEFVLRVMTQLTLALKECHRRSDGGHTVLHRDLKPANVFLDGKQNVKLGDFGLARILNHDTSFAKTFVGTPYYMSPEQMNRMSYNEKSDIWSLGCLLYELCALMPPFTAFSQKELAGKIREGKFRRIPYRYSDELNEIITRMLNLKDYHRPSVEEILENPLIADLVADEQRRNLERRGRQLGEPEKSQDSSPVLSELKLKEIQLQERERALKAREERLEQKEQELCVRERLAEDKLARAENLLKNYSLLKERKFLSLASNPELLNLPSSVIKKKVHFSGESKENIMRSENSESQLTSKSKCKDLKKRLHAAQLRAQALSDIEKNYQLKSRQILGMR

[9] = target: Serine/threonine-protein kinase B-raf (Homo sapiens) (UniProt P15056); assay: Inhibition of B-Raf(h) at 10.0 µM in the Eurofins Kinase panel
[10] = target: Protein kinase C theta type (Homo sapiens) (UniProt Q04759); assay: Inhibition of PKCtheta(h) at 10.0 µM in the Eurofins Kinase panel
[11] = target: Insulin receptor (Homo sapiens) (UniProt P06213); assay: Inhibition of IR(h), activated at 10.0 µM in the Eurofins Kinase panel
[12] = target: T1, Muscarinic acetylcholine receptor M5 (Homo sapiens) (UniProt P08912)
T1 sequence (whole entry): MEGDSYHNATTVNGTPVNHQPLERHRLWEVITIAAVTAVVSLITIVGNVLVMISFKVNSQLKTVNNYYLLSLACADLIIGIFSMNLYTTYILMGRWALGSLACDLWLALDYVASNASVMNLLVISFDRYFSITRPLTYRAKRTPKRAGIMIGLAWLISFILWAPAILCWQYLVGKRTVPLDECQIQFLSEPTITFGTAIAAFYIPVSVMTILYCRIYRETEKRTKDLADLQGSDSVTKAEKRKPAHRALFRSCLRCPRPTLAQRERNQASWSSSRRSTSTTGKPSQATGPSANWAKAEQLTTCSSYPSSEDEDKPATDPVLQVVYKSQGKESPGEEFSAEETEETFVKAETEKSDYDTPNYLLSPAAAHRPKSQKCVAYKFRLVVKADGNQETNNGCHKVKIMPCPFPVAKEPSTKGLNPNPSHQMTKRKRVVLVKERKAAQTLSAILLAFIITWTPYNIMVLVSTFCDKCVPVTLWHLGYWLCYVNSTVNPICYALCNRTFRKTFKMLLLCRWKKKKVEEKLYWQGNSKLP

[13] = target: Ribosomal protein S6 kinase beta-1 (Homo sapiens) (UniProt P23443); assay: Inhibition of p70S6K(h) at 10.0 µM in the Eurofins Kinase panel
[14] = target: RAC-gamma serine/threonine-protein kinase (Homo sapiens) (UniProt Q9Y243); assay: Inhibition of PKBgamma(h) at 10.0 µM in the Eurofins Kinase panel
[15] = target: Serine/threonine-protein kinase pim-2 (Homo sapiens) (UniProt Q9P1W9); assay: Inhibition of Pim-2(h) at 10.0 µM in the Eurofins Kinase panel
[16] = target: Beta-1 adrenergic receptor (Homo sapiens) (UniProt P08588)
[17] = target: 5-hydroxytryptamine receptor 7 (Homo sapiens) (UniProt P34969)
5-hydroxytryptamine receptor 7 (Homo sapiens), sequence (P34969 whole entry): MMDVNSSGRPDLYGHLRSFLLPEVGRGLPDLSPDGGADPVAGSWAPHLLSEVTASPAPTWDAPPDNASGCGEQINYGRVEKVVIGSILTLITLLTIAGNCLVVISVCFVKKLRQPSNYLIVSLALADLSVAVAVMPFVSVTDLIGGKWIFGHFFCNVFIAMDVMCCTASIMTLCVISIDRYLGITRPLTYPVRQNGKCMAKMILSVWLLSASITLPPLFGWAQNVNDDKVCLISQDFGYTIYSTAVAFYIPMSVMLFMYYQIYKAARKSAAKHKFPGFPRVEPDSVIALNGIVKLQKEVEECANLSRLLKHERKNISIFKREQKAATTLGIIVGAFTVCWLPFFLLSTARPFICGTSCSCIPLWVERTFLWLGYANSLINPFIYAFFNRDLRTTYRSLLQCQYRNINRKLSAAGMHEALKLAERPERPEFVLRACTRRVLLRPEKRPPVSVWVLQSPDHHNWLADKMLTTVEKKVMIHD

[18] = target: Sigma intracellular receptor 2 (Homo sapiens) (UniProt Q5BJF2)
Sigma intracellular receptor 2 (Homo sapiens), sequence (Q5BJF2 whole entry): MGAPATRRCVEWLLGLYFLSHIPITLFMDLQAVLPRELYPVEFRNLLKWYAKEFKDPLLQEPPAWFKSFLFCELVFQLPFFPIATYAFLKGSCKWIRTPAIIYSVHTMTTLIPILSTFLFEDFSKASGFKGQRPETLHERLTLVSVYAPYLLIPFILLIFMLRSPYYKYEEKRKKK

[19] = target: Mitogen-activated protein kinase kinase kinase 9 (Homo sapiens) (UniProt P80192); assay: Inhibition of MLK1(h) at 10.0 µM in the Eurofins Kinase panel
[20] = target: PAS domain-containing serine/threonine-protein kinase (Homo sapiens) (UniProt Q96RG2); assay: Inhibition of PASK(h) at 10.0 µM in the Eurofins Kinase panel
PAS domain-containing serine/threonine-protein kinase (Homo sapiens), sequence (Q96RG2 whole entry, the tested form may be a part): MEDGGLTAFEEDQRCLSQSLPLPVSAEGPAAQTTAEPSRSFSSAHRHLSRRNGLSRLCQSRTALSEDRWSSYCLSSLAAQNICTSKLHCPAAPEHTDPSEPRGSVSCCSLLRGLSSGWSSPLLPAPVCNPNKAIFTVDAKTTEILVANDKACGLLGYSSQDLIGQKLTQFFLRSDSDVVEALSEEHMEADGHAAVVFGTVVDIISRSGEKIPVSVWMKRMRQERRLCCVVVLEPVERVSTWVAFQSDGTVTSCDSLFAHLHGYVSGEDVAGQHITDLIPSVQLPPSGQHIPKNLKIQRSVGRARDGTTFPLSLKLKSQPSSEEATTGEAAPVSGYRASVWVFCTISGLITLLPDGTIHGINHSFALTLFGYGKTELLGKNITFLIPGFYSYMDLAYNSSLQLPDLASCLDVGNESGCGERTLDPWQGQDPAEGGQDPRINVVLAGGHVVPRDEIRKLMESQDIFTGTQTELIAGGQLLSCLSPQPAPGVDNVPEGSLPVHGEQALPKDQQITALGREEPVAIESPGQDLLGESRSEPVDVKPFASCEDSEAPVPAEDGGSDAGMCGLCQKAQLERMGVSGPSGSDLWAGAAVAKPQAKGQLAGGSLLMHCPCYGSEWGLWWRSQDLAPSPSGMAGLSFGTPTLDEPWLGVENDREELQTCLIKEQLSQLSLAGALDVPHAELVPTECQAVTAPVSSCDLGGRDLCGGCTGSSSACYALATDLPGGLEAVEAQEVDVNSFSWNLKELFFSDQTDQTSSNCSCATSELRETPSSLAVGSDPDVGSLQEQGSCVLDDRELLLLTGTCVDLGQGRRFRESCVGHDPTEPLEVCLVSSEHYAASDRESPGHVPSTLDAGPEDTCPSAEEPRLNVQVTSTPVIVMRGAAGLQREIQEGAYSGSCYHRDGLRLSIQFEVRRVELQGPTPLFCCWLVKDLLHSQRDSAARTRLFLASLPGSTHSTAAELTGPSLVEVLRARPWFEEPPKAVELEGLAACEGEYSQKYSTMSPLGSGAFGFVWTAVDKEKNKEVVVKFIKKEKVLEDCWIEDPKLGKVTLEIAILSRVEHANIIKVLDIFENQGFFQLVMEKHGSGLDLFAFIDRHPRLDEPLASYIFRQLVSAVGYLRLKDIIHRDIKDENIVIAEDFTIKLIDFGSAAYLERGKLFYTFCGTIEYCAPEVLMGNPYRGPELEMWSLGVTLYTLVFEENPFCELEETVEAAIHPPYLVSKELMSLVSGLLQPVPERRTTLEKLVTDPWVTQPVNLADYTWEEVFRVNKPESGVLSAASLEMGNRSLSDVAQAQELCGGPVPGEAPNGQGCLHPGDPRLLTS

[21] = target: T2, Muscarinic acetylcholine receptor M2 (Homo sapiens) (UniProt P08172)
T2 sequence (whole entry): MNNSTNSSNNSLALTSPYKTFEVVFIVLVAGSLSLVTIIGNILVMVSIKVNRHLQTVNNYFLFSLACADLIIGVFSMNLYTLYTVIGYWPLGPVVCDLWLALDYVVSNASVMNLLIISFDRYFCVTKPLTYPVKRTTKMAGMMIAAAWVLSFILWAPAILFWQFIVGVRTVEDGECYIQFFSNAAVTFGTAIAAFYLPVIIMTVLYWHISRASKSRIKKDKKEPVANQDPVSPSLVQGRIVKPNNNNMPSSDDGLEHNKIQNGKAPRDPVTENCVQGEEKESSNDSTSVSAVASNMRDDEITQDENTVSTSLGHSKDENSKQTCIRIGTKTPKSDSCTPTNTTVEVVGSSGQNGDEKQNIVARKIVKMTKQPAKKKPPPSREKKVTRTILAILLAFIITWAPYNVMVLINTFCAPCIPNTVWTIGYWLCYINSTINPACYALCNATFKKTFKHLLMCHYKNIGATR

[22] = target: Mast/stem cell growth factor receptor Kit (Homo sapiens) (UniProt P10721); assay: Inhibition of cKit(h) at 10.0 µM in the Eurofins Kinase panel
[23] = target: Serine/threonine-protein kinase TAO2 (Homo sapiens) (UniProt Q9UL54); assay: Inhibition of TAO2(h) at 10.0 µM in the Eurofins Kinase panel
[24] = target: Serine/threonine-protein kinase SIK2 (Homo sapiens) (UniProt Q9H0K1); assay: Inhibition of SIK2(h) at 10.0 µM in the Eurofins Kinase panel
[25] = target: Sigma non-opioid intracellular receptor 1 (Homo sapiens) (UniProt Q99720)
Sigma non-opioid intracellular receptor 1 (Homo sapiens), sequence (Q99720 whole entry): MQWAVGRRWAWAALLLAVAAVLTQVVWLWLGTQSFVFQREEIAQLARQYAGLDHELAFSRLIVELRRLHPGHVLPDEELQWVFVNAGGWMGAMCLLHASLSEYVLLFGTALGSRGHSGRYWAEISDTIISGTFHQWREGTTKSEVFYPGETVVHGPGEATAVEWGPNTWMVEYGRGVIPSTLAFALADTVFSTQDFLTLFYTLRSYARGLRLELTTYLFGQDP

[26] = target: Tyrosine-protein kinase ITK/TSK (Homo sapiens) (UniProt Q08881); assay: Inhibition of Itk(h) at 10.0 µM in the Eurofins Kinase panel
Tyrosine-protein kinase ITK/TSK (Homo sapiens), sequence (Q08881 whole entry): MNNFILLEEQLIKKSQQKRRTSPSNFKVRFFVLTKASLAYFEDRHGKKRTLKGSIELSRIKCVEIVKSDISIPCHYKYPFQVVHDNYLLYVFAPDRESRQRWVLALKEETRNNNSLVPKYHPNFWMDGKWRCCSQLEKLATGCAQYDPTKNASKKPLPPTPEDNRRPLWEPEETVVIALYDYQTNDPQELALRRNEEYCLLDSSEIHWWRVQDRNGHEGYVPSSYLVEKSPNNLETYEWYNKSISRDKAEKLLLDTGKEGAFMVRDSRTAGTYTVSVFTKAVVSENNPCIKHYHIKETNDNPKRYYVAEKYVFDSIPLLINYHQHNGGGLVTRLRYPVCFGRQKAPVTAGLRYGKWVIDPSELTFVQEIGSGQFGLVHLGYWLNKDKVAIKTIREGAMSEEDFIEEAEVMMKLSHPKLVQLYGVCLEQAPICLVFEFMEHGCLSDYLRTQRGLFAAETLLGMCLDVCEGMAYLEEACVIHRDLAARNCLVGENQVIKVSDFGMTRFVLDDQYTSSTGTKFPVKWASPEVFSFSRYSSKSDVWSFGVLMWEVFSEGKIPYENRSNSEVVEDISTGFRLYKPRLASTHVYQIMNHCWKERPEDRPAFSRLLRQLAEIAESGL

[27] = target: Transcription initiation factor TFIID subunit 1-like (Homo sapiens) (UniProt Q8IZX4); assay: Inhibition of TAF1L(h) at 10.0 µM in the Eurofins Kinase panel
[28] = target: Delta-type opioid receptor (Homo sapiens) (UniProt P41143)
Delta-type opioid receptor (Homo sapiens), sequence (P41143 whole entry): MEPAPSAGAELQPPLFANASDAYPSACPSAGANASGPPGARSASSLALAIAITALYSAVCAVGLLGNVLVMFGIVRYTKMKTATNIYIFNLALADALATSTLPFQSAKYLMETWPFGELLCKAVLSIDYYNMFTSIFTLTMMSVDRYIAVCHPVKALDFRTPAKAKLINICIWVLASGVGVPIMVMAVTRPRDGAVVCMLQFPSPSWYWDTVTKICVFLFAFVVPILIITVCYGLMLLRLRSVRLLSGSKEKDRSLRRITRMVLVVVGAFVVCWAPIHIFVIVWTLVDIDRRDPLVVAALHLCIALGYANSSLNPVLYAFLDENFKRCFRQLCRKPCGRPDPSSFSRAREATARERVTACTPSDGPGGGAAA

| Compound | inhibition [1] | inhibition [2] | inhibition [3] | inhibition [4] | inhibition [5] | inhibition [6] | inhibition [7] | inhibition [8] | inhibition [9] | inhibition [10] | inhibition [11] | inhibition [12] | inhibition [13] | inhibition [14] | inhibition [15] | inhibition [16] | inhibition [17] | inhibition [18] | inhibition [19] | inhibition [20] | other results |
| --- | --- | --- | --- | --- | --- | --- | --- | --- | --- | --- | --- | --- | --- | --- | --- | --- | --- | --- | --- | --- | --- |
| O=c1n(Cc2cncn2-c2cccc(Cl)c2)nc(-c2ccc(Cl)cc2)n1C[C@H](O)C(F)(F)F | 7.62% | 6.42% | 2.57% | -3.19% | -8.94% | -3.6% | 5.49% | -1.06% | -2.97% | 14.5% | 2.21% | -5.11% | 4.83% | 2.13% | 4.89% | 5% | -2% | 9.61% | -1.25% | -0.36% | inhibition [21]: 17%; inhibition [22]: 7.72%; inhibition [23]: -6.37%; inhibition [24]: 1.82%; inhibition [25]: 24.1%; inhibition [26]: -2.65%; inhibition [27]: -2.39%; inhibition [28]: 2% |
| C[C@H](O)c1nc(Cn2nc(-c3ccc(Cl)cc3)n(C[C@H](O)C(F)(F)F)c2=O)nn1-c1cccc(Cl)c1 [PECAVAPTAN] | 7.48% | -3.46% | 3.3% | -2.67% | -3.75% | 0.06% | 7.5% | 3.19% | -4.03% | 3.44% | -4.02% | -1.8% | 1.02% | -6.69% | -2.97% | 5% | 17.6% | 27.7% | 3.5% | -4.97% | inhibition [21]: 7%; inhibition [22]: 4.28%; inhibition [23]: -4.1%; inhibition [24]: -3.07%; inhibition [25]: 27%; inhibition [26]: -7.19%; inhibition [27]: 2.81%; inhibition [28]: 4% |
